According to US20070196514A1, “Prostate cancer treatment with glycogen synthase kinase-3beta inhibitors” (priority 2006, published 2007):

How the values were obtained:
[1] = tested on: HEK293 cells; assay: Affymetrix cDNA microarray for LiCl-induced changes; format: cell-based, human; settings: LiCl treatment, data not shown
Description: Androgen-insensitive C4-2 cells and HEK293 cells were used for cDNA-based microarray analysis. After serum starvation for 24 hours, cells were left untreated or treated with LiCl (10 mM) in serum free media for 30 minutes whereas the control cells received PBS in the same media. Then 10% FBS was brought back to both control and LiCl pre-treated cells and incubated for another 6 hours. At the end of treatment, total cellular RNAs were extracted using Trizol-based protocol as described (Liao 2005).
(§1) Genechip® arrays (Affymetrix Inc, Santa Clara, Calif.) used herein contain almost 45,000 probe sets representing more than 39,000 transcripts derived from approximately 33,000 well substantial human genes. The in vitro-transcription labeling is conducted using the EnzoBio array high yield RNA transcript labeling kit (Affymetrix). Ten micrograms of total RNAs were used for the first strand cDNA synthesis using the SuperscriptChoice system (Invitrogen).
(§2) Genechips were hybridized for 16 hours at 45° C. and 60 rpm in Genechip hybridization oven Model 640. After washing the Genechip, the signal intensity was detected using the Agilent Gene Array scanner.
The most dramatic changes were down-regulation of cdc6, cdc25C, cyclins A and E, as well as up-regulation of CDK inhibitor p21^CIP1. […]

[2] = tested on: LNCaP cells; assay: as above; format: cell-based, human
Description: as §1, §2
This example investigated the genes that are altered by GSK-3β inhibition. This approach started with a genome-wide screening of gene expression with cDNA Microarray to identify the altered genes, which was verified by RT-PCR and Western blot at mRNA and protein levels, respectively. After sequestered in serum-free media for 24 hours, LNCaP cells were left untreated or treated with LiCl in a full culture media for 18 hours. The total cellular RNAs were extracted from the cells for cDNA Microarray analysis.

[3] = tested on: PC-3 cells; assay: MTT cell growth assay; format: cell-based, human; settings: equimolecular concentrations of LiCl, NaCl, KCl, three days
Description: (§3) For MTT-based cell growth assays, cells seeded in 96-well plates were serum-starved for 48 hours, and were then treated with vehicle or different reagents for different time periods as indicated in the figures. MTT assay were carried out using a pre-assembled kit (Sigma) according to the manufacturer's manual.
(§4) To rule out the eventual intervention of the chloride anion and the osmotic disturbance, the effect of LiCl was compared with sodium chloride (“NaCl”) and potassium chloride (“KCl”) at equimolecular concentrations in both LNCaP and PC-3 cell lines. In addition, the androgen-insensitive C4-2 cell line was included. To easily handle the experiments while multiple comparisons were taken in place, a MTT assay was used to assess cell growth.

[4] = tested on: C4-2 cells; assay: MTT cell growth assay; format: cell-based, human; settings: equimolecular concentrations of LiCl, NaCl, KCl, three days
Description: as §3, §4

[5] = tested on: AR-null PC-3 xenografts; assay: mouse xenograft model, protocol A; format: in vivo, nude mice; settings: LiCl 2 mg/kg i.p. daily
Description: All animal studies were conducted under an approved Institutional Animal Care and Use Committee protocol. Single cell suspensions (2×10^6 cells in 0.1 ml of RPMI1640 medium plus 10% FBS) were inoculated subcutaneously (s.c.) into the rear flanks (two sites/mouse) of 6 to 7 weeks old male nude mice (Charles River, Wilmington, Mass.). For protocol A, mice were randomly divided into two groups (5 animals each). On next day after inoculation, one group of animals received i.p. injection of LiCl at a daily dose of 2 mg/kg body weight. LiCl was dissolved in PBS. The control groups of animals received PBS alone in the same volume. Xenograft development and growth were monitored for 8 weeks. The tumor dimensions were measured twice a week. The tumor volume was calculated by the formula of L×W×H×0.5236 (Miyake 2001). At the end of treatment, xenograft tumors were extirpated, and the final tumor size and weight, as well as animal weight were measured. For protocol B, treatment began until tumor became palpable or 50 mm^3 in size, and LiCl or PBS was injected (5 animals each group) as above for a two-week course. Tumor size and weight were measured at the end of treatment. For BrdU in vivo labeling, the animals were injected i.p. with 0.5 ml of a 10-mM BrdU solution (Invitrogen) 2 hours before sacrifice. For experiments involving LNCaP-BclxL SB216763 subline cells (Liao 2005) were inoculated as above, and SB216763 treatment was started two weeks later when palpable xenografts were established. The SB216763 for animal use was purchased from Biomol (Plymouth Meeting, Pa.) and dissolved in a formula containing 50% N,N-dimethylacetamide (“DMA”), 45% polyethylene glycol 400 (“PEG-400”) and 5% Tween-80. SB216763 (2 mg/kilogram/bodyweight) or the solvent in 20 μl volume was injected i.p. three times a week. Tumor growth was monitored as discussed herein.
This example investigated GSK-3β inhibitor-induced suppression of cancer cell growth in vivo. A mouse xenograft model was used to examine the effect of GSK-3β inhibitor on tumor growth in two different strategies (protocol A and B). In both protocols, LiCl was delivered at a daily dose i.p. of 2 mg/kg of body weight. This dose level is more than 100-fold lower than a therapeutic dose for mental diseases in mouse (Noble 2005) or human (Moore 2002).
In protocol A, LiCl treatment was started on the same day when AR-null PC-3 cancer cells were inoculated into animals. AR-null PC-3 xenografts were developed around 4 weeks after inoculation in PBS-treated control animals.

[6] = LiCl in full culture media 18 hours, down-regulation
[7] = LiCl in full culture media 18 hours, up-regulation
[8] = protocol A, end of 8-week treatment

Compound: [Cl-].[Li+] [LiCl, Lithium chloride]
- alterations of cell cycle genes (microarray) [1]: not observed
- fold change, Cyclin A2 (203418_at) [2, 6]: −4.19
- fold change, Cyclin E2 (205034_at) [2, 6]: −2.99
- fold change, Cyclin E2 (211814_s_at) [2, 6]: −2.18
- fold change, cdc6 (203967_at) [2, 6]: −3.47
- fold change, cdc6 (203968_s_at) [2, 6]: −3
- fold change, cdc25c (205167_s_at) [2, 6]: −2.74
- fold change, cdc25c (217010_s_at) [2, 6]: −5.99
- fold change, cyclin B2 (202705_at) [2, 6]: −1.4
- fold change, p27KIP1 (209112_at) [2, 6]: −1.17
- fold change, cyclin D1 (203665_at) [2, 7]: 2.07
- fold change, cyclin D1 (208712_at) [2, 7]: 1.84
- fold change, cyclin G2 (202770_s_at) [2, 7]: 1.87
- fold change, p21CIP1 (202284_s_at) [2, 7]: 5.7
- fold change, p57KIP2 (213348_at) [2, 7]: 1.79
- microarray expression of cyclin D1 ([2]; LiCl treatment): slight increase
- microarray expression of other cell cycle related proteins (cyclin B, cdc2, p27KIP1, p57KIP2) ([2]; LiCl treatment): No significant changes
- treatment signal, p57KIP2 (213348_at) ([2]; LiCl-treated, control signal 137.6): 246.4
- treatment signal, cdc25c (217010_s_at) ([2]; LiCl-treated, control signal 207.8): 34.7
- treatment signal, cyclin D1 (203665_at) ([2]; LiCl-treated, control signal 294.7): 609.3
- treatment signal, cyclin G2 (202770_s_at) ([2]; LiCl-treated, control signal 325.3): 606.9
- treatment signal, p21CIP1 (202284_s_at) ([2]; LiCl-treated, control signal 430.9): 2457.2
- treatment signal, cdc25c (205167_s_at) ([2]; LiCl-treated, control signal 442.3): 161.2
- treatment signal, Cyclin E2 (211814_s_at) ([2]; LiCl-treated, control signal 852.7): 391.2
- treatment signal, cyclin D1 (208712_at) ([2]; LiCl-treated, control signal 853.9): 1568.2
- treatment signal, cdc6 (203968_s_at) ([2]; LiCl-treated, control signal 1132.5): 377.9
- treatment signal, cdc6 (203967_at) ([2]; LiCl-treated, control signal 1136): 327
- treatment signal, Cyclin E2 (205034_at) ([2]; LiCl-treated, control signal 1268.1): 423.8
- treatment signal, p27KIP1 (209112_at) ([2]; LiCl-treated, control signal 1365.8): 1171.7
- treatment signal, Cyclin A2 (203418_at) ([2]; LiCl-treated, control signal 1529.8): 364.7
- treatment signal, cyclin B2 (202705_at) ([2]; LiCl-treated, control signal 2379.1): 1693.9
- cell growth inhibition (MTT) [3]: dramatic inhibition
- cell growth inhibition (MTT) [4]: dramatic inhibition
- animal body weight and daily activities, treatment vs control ([5]; nude mice): no significant difference
- abnormality of daily activities / side effects ([5]; nude mice, both protocols A and B): no obvious abnormality of daily activities or any sign of side effect
- xenograft development, time after inoculation ([5]; protocol A, PBS control around 4 weeks): 6-7 weeks
- tumor volume vs PBS control [5, 8]: significant reduction
- tumor weight vs PBS control [5, 8]: significant reduction
